# Literature values in US11701338B2, “Use of gTso thal in manufacturing medicament for promotion of MS-275 to cross blood-brain barrier” (Northwest Institute of Plateau Biology, Chinese Academy of …, priority 2020, dated 2023).
# Settings: after oral or intravenous administration
compound,measurement,value
Nc1ccccc1NC(=O)c1ccc(CNC(=O)OCc2cccnc2)cc1 [MS-275],share of the dosage of MS-275 that crosses the BBB into the brain,around 15%
